Where two headings read alike, the source gives them in different places.
Test system: passive cutaneous anaphylaxis
Test: Passive cutaneous anaphylaxis (PCA) in rats;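 note: male rats, challenged with antigen plus Evans blue three days post sensitization, killed 30 min later, dorsal skin bluing graded on a five point scale, summed over four sites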
Format: in vivo
Settings: dosed immediately prior to intravenous challenge, rats sensitized intradermally with anti-ovalbumen antiserum; for ED50: Rattus norvegicus
[1] = po, read-out: ED 50 p.o. (dose of drug giving 50% inhibition), p.o.
[2] = read-out: ED 50 i.v. (dose of drug giving 50% inhibition), i.v.

Method: Cutaneous anaphylaxis can be induced in rats by intradermal (ID) sensitization with antiserum followed three days later by systemic challenge with antigen. Evans blue dye injected with the antigen is used as a marker to assess the severity of the local response. […] Brown: Pergamon Press: --male rats weighing 180-220 grams are used in groups of seven.
Preparation of Antigen for Sensitization (Alum precipitated ovalbumen)
Wash 120 grams of Al(OH)3 in 140 ml of saline (use of a macerater facilitates mixing).
Centrifuge at 3,000 r.p.m. for about 10 minutes.
Resuspend the precipiate with 300 ml of albumen egg powder (1.3 mg/ml) in saline and allow to stand for 30 minutes.
Centrifuge at 3,000 r.p.m. for 10 minutes.
Weigh the wet precipitate and to each gram weight add 1 ml of saline. Store in refrigerator (Quantity sufficient for 60 rats for a 3 day sensitization program).
Preparation of Antiserum (anti-ovalbumen)
1 ml of the alum precipitated ovalbumen was injected subcutaneously into rats weighing 180-200 grams on days 0,2,4. The rats were bled on day 14 either by cardiac puncture or via the dorsal abdominal aorta. Equal quantities of serum from each animal were pooled and thoroughly mixed and 2 ml aliquots were stored at -20° C. in plastic tubes.
The animals were then left for a period of three days to develop sensitization.
The injections were speeded up by using an automatic 1 ml self-filling glass syringe. The "challenged" rats were killed after 30 minutes, usually pithed) and their skin on the dorsal surface was removed. The degree and area of blueing, proportional to the anaphylactic reaction was assessed on a five point scoring system.
Total scores for sites 1,2,3 and 4=X
2. mean value of X for each group=X

Molecule | ED50 [1] [mg/kg] | ED50 [2] [mg/kg] | ED 50 i.v. (dose of drug giving 50% inhibition) (i.v.) [mg/kg] | ED 50 p.o. (dose of drug giving 50% inhibition) (p.o.) [mg/kg]
CCCCn1c(=O)c2cc(C(=O)O)cn2c2cc(Cl)ccc21 [Example 21, 5-n-butyl-8-chloro-4,5-dihydro-4-oxo-pyrrolo[1,2-a]quinoxaline-2-carboxylic acid] | 0.114 | 0.019 |  | 
C=CCn1c(=O)c2cc(C(=O)O)cn2c2ccccc21 [Example 19, 5-allyl-4,5-dihydro-4-oxo-pyrrolo[1,2-a]quinoxaline-2-carboxylic acid] | 0.28 | 0.035 |  | 
Cn1c(=O)c2cc(C(=O)O)cn2c2ccccc21 [Example 12, 5-methyl-4,5-dihydro-4-oxo-pyrrolo[1,2-a]quinoxaline-2-carboxylic acid] | 0.54 | 0.089 |  | 
O=C(O)c1cc2c(=O)n(C3CCCC3)c3ccccc3n2c1 [Example 20, 5-cyclopentyl-4,5-dihydro-4-oxo-pyrrolo[1,2-a]quinoxaline-2-carboxylic acid] |  | 0.37 |  | 
CCCCCn1c(=O)c2cc(C(=O)O)cn2c2ccccc21 [Example 17, 5-n-pentyl-4,5-dihydro-4-oxo-pyrrolo[1,2-a]quinoxaline-2-carboxylic acid] | 0.31 | 0.087 |  | 
O=C(O)c1cc2c(=O)n(-c3ccccc3)c3ccccc3n2c1 [Example 13, 5-phenyl-4,5-dihydro-4-oxo-pyrrolo[1,2-a]quinoxaline-2-carboxylic acid] | 19 | 1.57 |  | 
CC(C)n1c(=O)c2cc(C(=O)O)cn2c2ccccc21 [Example 18, 5-isopropyl-4,5-dihydro-4-oxo-pyrrolo[1,2-a]quinoxaline-2-carboxylic acid] |  | 0.85 |  | 
CCCCn1c(=O)c2cc(C(=O)O)cn2c2ccccc21 [Example 16, 5-n-butyl-4,5-dihydro-4-oxo-pyrrolo[1,2-a]quinoxaline-2-carboxylic acid] | 0.058 | 0.019 |  | 
CCCCn1c(=O)c2cc(C(=O)O)cn2c2cc(Cl)c(Cl)cc21 [Example 22, 5-n-butyl-7,8-dichloro-4,5-dihydro-4-oxo-pyrrolo[1,2-a]quinoxaline-2-carboxylic acid] | 0.117 | 0.014 |  | 
5-n-butyl-7-(and 8)-nitro-4,5-dihydro-4-oxo-pyrrolo[1,2-a]quinoxaline-2-carboxylic acid [23(c)] |  |  | 0.025 | 0.26
CCCCn1c(=O)c2cc(C(=O)OCC)cn2c2ccccc21 [Example 5, ethyl 5-n-butyl-4,5-dihydro-4-oxo-pyrrolo[1,2-a]quinoxaline-2-carboxylate] | 4.1 |  |  | 
CCOC(=O)c1cc2c(=O)n(C)c3ccccc3n2c1 [Example 1, ethyl 5-methyl-4,5-dihydro-4-oxo-pyrrolo[1,2-a]quinoxaline-2-carboxylate] | 7 |  |  | 
CCn1c(=O)c2cc(C(=O)O)cn2c2cc(Cl)ccc21 [24(d), 8-chloro-5-ethyl-4,5-dihydro-4-oxo-pyrrolo[1,2-a]quinoxaline-2-carboxylic acid] | 0.29 | 0.035 |  | 
CCn1c(=O)c2cc(C(=O)O)cn2c2ccccc21 [Example 14, 5-ethyl-4,5-dihydro-4-oxo-pyrrolo[1,2-a]quinoxaline-2-carboxylic acid] | 0.035 | 0.026 |  | 
CCCn1c(=O)c2cc(C(=O)O)cn2c2ccccc21 [Example 15, 5-n-propyl-4,5-dihydro-4-oxo-pyrrolo[1,2-a]quinoxaline-2-carboxylic acid] | 0.032 | 0.019 |  | 
